Test results taken from patent US6737383B1, “Herbicidal oxadiazolidines” (priority 1999, dated 2004).

Key:
pitted morningglory = experiment: Test D pitted morningglory; type: in vivo, Ipomoea lacunosa; conditions: Preemergence, 0 to 100 scale
How it was run: (§1)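 Seeds were sown in greenhouse pots, one species per pot or compartment. Compounds were in a non-phytotoxic solvent mixture with surfactant; preemergence applications went on the sandy loam surface within one day of planting. Injury was rated visually after 14 to 21 days, 0 (none) to 100 (complete control).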

surinam grass = experiment: Test D surinam grass; type: in vivo, Brachiaria decumbens; conditions: Preemergence, 0 to 100 scale
How it was run: as §1

goosegrass = experiment: Test D goosegrass; type: in vivo, Eleusine indica; conditions: Preemergence, 0 to 100 scale
How it was run: as §1

dallisgrass = experiment: Test D dallisgrass; type: in vivo, Paspalum dilatatum; conditions: Preemergence, 0 to 100 scale
How it was run: as §1

common pursiane = experiment: Test D common purslane; type: in vivo, Portulaca oleracea; conditions: Preemergence, 0 to 100 scale
How it was run: as §1

common groundsel = experiment: Test D common groundsel; type: in vivo, Senecio vulgaris; conditions: Preemergence, 0 to 100 scale
How it was run: as §1

cocklebur = experiment: Test C postemergence cocklebur; type: in vivo, Xanthium strumarium; conditions: 0 to 100 scale, 0 no effect, 100 complete control
How it was run: (§2)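 Soil: sandy loam/potting mix 60:40. Treatment: postemergence, solvent + surfactant formulation. Readout: visual control score 0–100 vs untreated at ~14–21 days.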

bermuda-grass = experiment: Test D bermudagrass; type: in vivo, Cynodon dactylon; conditions: Preemergence, 0 to 100 scale
How it was run: as §1

Johnson grass = experiment: Test D Johnson grass; type: in vivo, Sorghum halepense; conditions: Preemergence, 0 to 100 scale
How it was run: as §1

common ragweed = experiment: Test D common ragweed; type: in vivo, Ambrosia elatior; conditions: Preemergence, 0 to 100 scale
How it was run: as §1

Spanishneedles = experiment: Test D Spanishneedles; type: in vivo, Bidens bipinnata; conditions: Preemergence, 0 to 100 scale
How it was run: as §1

Green foxtail = experiment: Test D green foxtail; type: in vivo; conditions: Preemergence, 0 to 100 scale
How it was run: as §1

Alexandergrass = experiment: Test D Alexandergrass; type: in vivo, Brachiaria plantaginea; conditions: Preemergence, 0 to 100 scale
How it was run: as §1

guineagrass = experiment: Test D guineagrass; type: in vivo, Panicum maximum; conditions: Preemergence, 0 to 100 scale
How it was run: as §1

tall mallow = experiment: Test D tall mallow; type: in vivo, Malva sylvestris; conditions: Preemergence, 0 to 100 scale
How it was run: as §1

velvetleaf = experiment: Test C postemergence velvetleaf; type: in vivo, Abutilon theophrasti; conditions: 0 to 100 scale, 0 no effect, 100 complete control
How it was run: as §2

itchgrass = experiment: Test D itchgrass; type: in vivo, Rottboellia exaltata; conditions: Preemergence, 0 to 100 scale
How it was run: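 Scoring used a 0–100 visual injury scale, with 0 meaning no effect and 100 complete control, assessed 14–21 days after application alongside untreated pots. Preemergence treatments went onto sandy loam surfaces of separately potted seeds within a day of sowing.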

sandbur = experiment: Test D sandbur; type: in vivo, Cenchrus echinatus; conditions: Preemergence, 0 to 100 scale
How it was run: as §1

hairy beggarticks = experiment: Test C postemergence hairy beggarticks; type: in vivo, Bidens pilosa; conditions: 0 to 100 scale, 0 no effect, 100 complete control
How it was run: as §2

[1] = Rate 16 g/ha, 0 no injury, 100 complete control
[2] = Rate 32 g/ha, 0 no injury, 100 complete control
[3] = Rate 64 g/ha, 0 no injury, 100 complete control
[4] = Rate 125 g/ha, 0 no injury, 100 complete control

For C=CCn1c(=O)on(C(=O)N(c2ccc(F)cc2)C(C)C)c1=O [Compound 146], the “Plant response rating, P. morninglory” value (pitted morningglory; [1]) was 0, the “Plant response rating, P. morninglory” value (pitted morningglory; [2]) was 0 and the “Plant response rating, P. morninglory” value (pitted morningglory; [3]) was 0. For the same compound, the “Plant response rating, P. morninglory” value (pitted morningglory; [4]) was 0, the “Plant response rating, P. morninglory” value (pitted morningglory; Rate 250 g/ha) was 0 and the “Plant response rating, P. morninglory” value (pitted morningglory; Rate 500 g/ha) was 20. For the same compound, the “Plant response rating Surinam grass” value (surinam grass; [1]) was 40, the “Plant response rating Surinam grass” value (surinam grass; [2]) was 60 and the “Surinam grass plant response rating” value (surinam grass; [3]) was 60. The “Surinam grass plant response rating” value (surinam grass; [4]) was 100, the “Plant response rating Surinam grass” value (surinam grass; Rate 250 g/ha) was 100 and the “Plant response rating Surinam grass” value (surinam grass; Rate 500 g/ha) was 100. The “Plant response rating, Goosegrass” value (goosegrass; [1]) was 90, the “Plant response rating, Goosegrass” value (goosegrass; [2]) was 98 and the “Plant response rating, Goosegrass” value (goosegrass; [3]) was 100. The “Plant response rating, Goosegrass” value (goosegrass; [4]) was 100, the “Plant response rating, Goosegrass” value (goosegrass; Rate 250 g/ha) was 100 and the “Plant response rating, Goosegrass” value (goosegrass; Rate 500 g/ha) was 100. The “Plant response rating, Dallisgrass” value (dallisgrass; [1]) was 80, the “Plant response rating, Dallisgrass” value (dallisgrass; [2]) was 90 and the “Plant response rating, Dallisgrass” value (dallisgrass; [3]) was 98. For the same compound, the “Plant response rating, Dallisgrass” value (dallisgrass; [4]) was 100, the “Plant response rating, Dallisgrass” value (dallisgrass; Rate 250 g/ha) was 100 and the “Plant response rating, Dallisgrass” value (dallisgrass; Rate 500 g/ha) was 100. The “Plant response rating, C. purslane” value (common pursiane; [1]) was 0, the “Plant response rating, C. purslane” value (common pursiane; [2]) was 0 and the “Plant response rating, C. purslane” value (common pursiane; [3]) was 0. The “Plant response rating, C. purslane” value (common pursiane; [4]) was 0, the “Plant response rating, C. purslane” value (common pursiane; Rate 250 g/ha) was 0 and the “Plant response rating, C. purslane” value (common pursiane; Rate 500 g/ha) was 0. The “Plant response rating, Com. groundsel” value (common groundsel; [1]) was 65, the “Plant response rating, Com. groundsel” value (common groundsel; [2]) was 0 and the “Plant response rating, Com. groundsel” value (common groundsel; [3]) was 0. For the same compound, the “Plant response rating, Com. groundsel” value (common groundsel; [4]) was 75, the “Plant response rating, Com. groundsel” value (common groundsel; Rate 250 g/ha) was 85 and the “Plant response rating, Com. groundsel” value (common groundsel; Rate 500 g/ha) was 100. For the same compound, the “Plant response rating, Cocklebur” value (cocklebur; Rate 140 g/ha) was 40, the “Plant response rating, Cocklebur” value (cocklebur; Rate 280 g/ha) was 40 and the “Plant response rating, Cocklebur” value (cocklebur; Rate 560 g/ha) was 70. For the same compound, the “Plant response rating, Cocklebur” value (cocklebur; Rate 1120 g/ha) was 70, the “Plant response rating, Bermudagrass” value (bermuda-grass; [1]) was 65 and the “Plant response rating, Bermudagrass” value (bermuda-grass; [2]) was 100. The “Plant response rating, Bermudagrass” value (bermuda-grass; [3]) was 95, the “Plant response rating, Bermudagrass” value (bermuda-grass; [4]) was 90 and the “Plant response rating, Bermudagrass” value (bermuda-grass; Rate 250 g/ha) was 90. For the same compound, the “Plant response rating, Bermudagrass” value (bermuda-grass; Rate 500 g/ha) was 100, the “Plant response rating Johnsongrass” value (Johnson grass; [1]) was 60 and the “Plant response rating Johnsongrass” value (Johnson grass; [2]) was 60. For the same compound, the “Plant response rating Johnsongrass” value (Johnson grass; [3]) was 60, the “Plant response rating Johnsongrass” value (Johnson grass; [4]) was 80 and the “Plant response rating Johnsongrass” value (Johnson grass; Rate 250 g/ha) was 90. The “Plant response rating Johnsongrass” value (Johnson grass; Rate 500 g/ha) was 95, the “Plant response rating, C. ragweed” value (common ragweed; [1]) was 0 and the “Plant response rating, C. ragweed” value (common ragweed; [2]) was 0. The “Plant response rating, C. ragweed” value (common ragweed; [3]) was 0, the “Plant response rating, C. ragweed” value (common ragweed; [4]) was 0 and the “Plant response rating, C. ragweed” value (common ragweed; Rate 250 g/ha) was 60. The “Plant response rating, C. ragweed” value (common ragweed; Rate 500 g/ha) was 75, the “Plant response rating, Spanishneedles” value (Spanishneedles; [1]) was 0 and the “Plant response rating, Spanishneedles” value (Spanishneedles; [2]) was 75. The “Spanishneedles plant response rating” value (Spanishneedles; [3]) was 85, the “Spanishneedles plant response rating” value (Spanishneedles; [4]) was 90 and the “Plant response rating, Spanishneedles” value (Spanishneedles; Rate 250 g/ha) was 100. The “Plant response rating, Spanishneedles” value (Spanishneedles; Rate 500 g/ha) was 100, the “Green foxtail plant response rating” value (Green foxtail; [3]) was 100 and the “Plant response rating, Green foxtail” value (Green foxtail; [3]) was 100. The “Green foxtail plant response rating” value (Green foxtail; [4]) was 100, the “Plant response rating, Green foxtail” value (Green foxtail; [4]) was 100 and the “Plant response rating, Green foxtail” value (Green foxtail; Rate 250 g/ha) was 100. The “Plant response rating, Green foxtail” value (Green foxtail; Rate 500 g/ha) was 100, the “Plant response rating, Alexandergrass” value (Alexandergrass; [1]) was 65 and the “Plant response rating, Alexandergrass” value (Alexandergrass; [2]) was 85. The “Plant response rating, Alexandergrass” value (Alexandergrass; [3]) was 95, the “Plant response rating, Alexandergrass” value (Alexandergrass; [4]) was 98 and the “Plant response rating, Alexandergrass” value (Alexandergrass; Rate 250 g/ha) was 100. The “Plant response rating, Alexandergrass” value (Alexandergrass; Rate 500 g/ha) was 100, the “Plant response rating, Guineagrass” value (guineagrass; [1]) was 90 and the “Plant response rating, Guineagrass” value (guineagrass; [2]) was 95. The “Plant response rating, Guineagrass” value (guineagrass; [3]) was 100, the “Plant response rating, Guineagrass” value (guineagrass; [4]) was 100 and the “Plant response rating, Guineagrass” value (guineagrass; Rate 250 g/ha) was 100. For the same compound, the “Plant response rating, Guineagrass” value (guineagrass; Rate 500 g/ha) was 100, the “Plant response rating, Tall Mallow” value (tall mallow; [1]) was 40 and the “Plant response rating, Tall Mallow” value (tall mallow; [2]) was 40. The “Tall Mallow plant response rating” value (tall mallow; [3]) was 50, the “Tall Mallow plant response rating” value (tall mallow; [4]) was 80 and the “Plant response rating, Tall Mallow” value (tall mallow; Rate 250 g/ha) was 90. The “Plant response rating, Tall Mallow” value (tall mallow; Rate 500 g/ha) was 100, the “Plant response rating, Velvetleaf” value (velvetleaf; Rate 140 g/ha) was 0 and the “Plant response rating, Velvetleaf” value (velvetleaf; Rate 280 g/ha) was 40. The “Plant response rating, Velvetleaf” value (velvetleaf; Rate 560 g/ha) was 40, the “Plant response rating, Velvetleaf” value (velvetleaf; Rate 1120 g/ha) was 60 and the “Plant response rating, Itchgrass” value (itchgrass; [1]) was 85. The “Plant response rating, Itchgrass” value (itchgrass; [2]) was 90, the “Plant response rating, Itchgrass” value (itchgrass; [3]) was 90 and the “Plant response rating, Itchgrass” value (itchgrass; [4]) was 90. The “Plant response rating, Itchgrass” value (itchgrass; Rate 250 g/ha) was 100, the “Plant response rating, Itchgrass” value (itchgrass; Rate 500 g/ha) was 100 and the “Plant response rating, Sandbur” value (sandbur; [1]) was 0. For the same compound, the “Plant response rating, Sandbur” value (sandbur; [2]) was 85, the “Sandbur plant response rating” value (sandbur; [3]) was 100 and the “Sandbur plant response rating” value (sandbur; [4]) was 100. The “Plant response rating, Sandbur” value (sandbur; Rate 250 g/ha) was 100, the “Plant response rating, Sandbur” value (sandbur; Rate 500 g/ha) was 100 and the “Plant response rating H. beggarticks” value (hairy beggarticks; Rate 140 g/ha) was 10. For the same compound, the “Plant response rating H. beggarticks” value (hairy beggarticks; Rate 280 g/ha) was 20, the “Plant response rating H. beggarticks” value (hairy beggarticks; Rate 560 g/ha) was 85 and the “Plant response rating H. beggarticks” value (hairy beggarticks; Rate 1120 g/ha) was 85.
